Source: a melting point compilation (Tetko et al.)

Q: With Nc1ccccc1C(=O)Nc1ccc2c(c1)OCO2 as the compound, how does the melting point read?
A: 85 to 87 °C

Q: Which melting point does the source give for CCNC(=O)c1ccc(I)cc1 here?
A: 148 to 150 °C

Q: Which melting point does the source give for Cc1[nH]c2ccc(C#N)cc2c1C here?
A: 145 to 147 °C

Q: Which melting point does the source give for CC(C)(C)OC(=O)Nc1cccc(Cl)n1 here?
A: 74 to 76 °C

Q: Which melting point does the source give for COc1ccc(OCC(=O)NN)cc1 here?
A: 142 to 144 °C

Q: Which melting point does the source give for Cn1cnc2cc(C#N)ccc21 here?
A: 139 to 141 °C

Q: With Cc1cc(N)nn1-c1ccc(Cl)cc1 as the compound, how does the melting point read?
A: 100 to 102 °C

Q: Which melting point does the source give for C=CCn1c(N)c(C#N)sc1=S here?
A: 174 to 176 °C

Q: Which melting point does the source give for Cn1cnnc1CO here?
A: 49 to 51 °C

Q: For Nc1ccncc1F, which melting point is on record?
A: 71 to 79 °C

Q: Which melting point does the source give for OC1C=C(c2ccc(Cl)cc2)CC1 (centres undefined) here?
A: 89 to 91 °C

Q: Which melting point does the source give for NC(CNS(=O)(=O)c1ccc(F)cc1)=NO here?
A: 148 to 150 °C

Q: Which melting point does the source give for O=C(O)c1ccc(-n2cc(Br)cn2)cc1 here?
A: 273 to 275 °C

Q: Which melting point does the source give for O=c1cc(CO)occ1OCc1ccccc1 here?
A: 96 to 98 °C

Q: Which melting point does the source give for Cn1cc(C(N)=S)cn1 here?
A: 189 to 191 °C

Q: Which melting point does the source give for O=C(O)CSc1ccccc1O here?
A: 51 to 53 °C

Q: For COC(C)(C(=O)O)c1ccccc1 (centres undefined), which melting point is on record?
A: 44 to 46 °C

Q: Which melting point does the source give for NCc1cnc(-c2ccc(C(F)(F)F)cc2)s1 here?
A: 73 to 75 °C

Q: With CCOc1cccc(C=O)c1OC(F)F as the compound, how does the melting point read?
A: 41 to 43 °C

Q: For CCNC(=O)N1CCc2ccc(N)cc21, which melting point is on record?
A: 134 to 136 °C

Q: Which melting point does the source give for NS(=O)(=O)c1ccc(NC(=O)OCC(F)(F)F)cc1 here?
A: 192 to 194 °C

Q: With O=C1CCOc2ccccc2N1 as the compound, how does the melting point read?
A: 109 to 111 °C

Q: Which melting point does the source give for NC(=O)c1c(NC(=O)CCl)sc2c1CCCC2 here?
A: 236 to 238 °C

Q: For COC(=O)CCOc1ccc(N)cc1, which melting point is on record?
A: 51 to 53 °C

Q: Which melting point does the source give for O=C(O)c1ncoc1-c1cccs1 here?
A: 200 to 202 °C

Q: Which melting point does the source give for O=C(NC1CC1)C(=O)N1CCNCC1 here?
A: 100 to 102 °C

Q: For NNc1ccc2ccccc2n1, which melting point is on record?
A: 147 to 151 °C

Q: For O=[N+]([O-])c1cnn(CC2CO2)c1 (centres undefined), which melting point is on record?
A: 68 to 70 °C

Q: For CCOC(=O)C1=C(CBr)C(C)(C)OC1=O, which melting point is on record?
A: 87 to 89 °C

Q: For Cc1cc2cc(F)ccc2[nH]1, which melting point is on record?
A: 98 to 101 °C

Q: With Nc1ccc(CC(=O)N2CCN(c3ccccc3)CC2)cc1 as the compound, how does the melting point read?
A: 201 to 203 °C

Q: With C=CCN=c1nn[nH]n1C as the compound, how does the melting point read?
A: 66 to 68 °C

Q: Which melting point does the source give for CCOc1ccccc1-c1csc(N)n1 here?
A: 209 to 211 °C

Q: For NNC(=O)Cc1ccccn1, which melting point is on record?
A: 111 to 113 °C

Q: For O=C(NC(C(=O)O)c1ccccc1)c1cccs1 (centres undefined), which melting point is on record?
A: 185 to 187 °C

Q: With COc1ccccc1-n1cc(S(=O)(=O)Cl)cn1 as the compound, how does the melting point read?
A: 68 to 70 °C

Q: For Cc1nnc(S)n1C1CC1, which melting point is on record?
A: 132 to 134 °C

Q: With Cc1cc(C(=O)O)c(C)n1-c1cccc(Br)c1 as the compound, how does the melting point read?
A: 158 to 160 °C

Q: Which melting point does the source give for NS(=O)(=O)c1ccc2c(c1)CCCO2 here?
A: 145 to 147 °C

Q: For Cc1nccn1Cc1ccc(N)cc1, which melting point is on record?
A: 159 to 161 °C

Q: With O=C(O)C1CCN(c2ccc(S(=O)(=O)N3CCCCC3)cc2[N+](=O)[O-])CC1 as the compound, how does the melting point read?
A: 241 to 243 °C

Q: Which melting point does the source give for O=C(O)c1c[nH]c2ccc(Br)cc12 here?
A: 238 to 240 °C

Q: For C#CCNC(=O)NC1(C(=O)O)CCc2ccccc21 (centres undefined), which melting point is on record?
A: 181 to 183 °C

Q: With O=C(O)C1CCCN(C(=O)c2ccc(Cl)c(Cl)c2)C1 (centres undefined) as the compound, how does the melting point read?
A: 163 to 165 °C

Q: For Cc1nnc(SCC(=O)O)n1Cc1ccccc1, which melting point is on record?
A: 167 to 169 °C

Q: Which melting point does the source give for CNC(=O)c1cc(OC)c(OC)cc1N here?
A: 129 to 131 °C

Q: With Cc1nc(S(=O)(=O)Oc2c(F)c(F)c(F)c(F)c2F)sc1C as the compound, how does the melting point read?
A: 98 to 100 °C

Q: For O=C(O)c1cc(S(=O)(=O)N2CCCCC2)ccc1Br, which melting point is on record?
A: 230 to 232 °C

Q: Which melting point does the source give for O=C(O)c1cc(=O)c(OCc2ccccc2)co1 here?
A: 179 to 181 °C

Q: For NC(=O)COc1ccc(Cl)cc1S(N)(=O)=O, which melting point is on record?
A: 214 to 216 °C

Q: Which melting point does the source give for O=C(O)Cc1ccc(C(F)F)cc1 here?
A: 76 to 78 °C

Q: For O=C(O)CCNS(=O)(=O)C=Cc1ccccc1, which melting point is on record?
A: 119 to 123 °C

Q: For Cc1nnnn1C(Cc1ccc(F)cc1)C(=O)O (centres undefined), which melting point is on record?
A: 152 to 154 °C

Q: For CC(C)(C)CNC(=O)Nc1ccc(Cl)c(C(=O)O)c1, which melting point is on record?
A: 208 to 210 °C

Q: With Cc1ccc(Cl)c(N)c1C(=O)O as the compound, how does the melting point read?
A: 119 to 121 °C

Q: For Clc1cc(-n2ccnc2)ncn1, which melting point is on record?
A: 127 to 129 °C

Q: Which melting point does the source give for N#Cc1csc(C(=O)O)c1 here?
A: 224 to 226 °C

Q: Which melting point does the source give for CN(C)C(=O)Cn1ccc(N)n1 here?
A: 58 to 60 °C

Q: Which melting point does the source give for COc1cc(OC)c2c(Cl)ccnc2c1 here?
A: 92 to 94 °C

Q: Which melting point does the source give for Cc1ccccc1-c1cc(N)n(CCO)n1 here?
A: 128 to 130 °C

Q: With O=C(O)c1cc2ccc(SC(F)(F)F)cc2[nH]1 as the compound, how does the melting point read?
A: 185 to 187 °C

Q: For CC(C)C(=O)N(C)CC(=O)O, which melting point is on record?
A: 109 to 111 °C

Q: Which melting point does the source give for Cc1ccc(-n2nc(Br)cc2C(=O)O)cc1 here?
A: 219 to 221 °C

Q: Which melting point does the source give for O=C(CCN1CCOCC1)c1ccc2ccccc2c1 here?
A: 67 to 69 °C

Q: Which melting point does the source give for O=C(O)C=C1CCC1 here?
A: 89 to 91 °C

Q: Which melting point does the source give for Nc1cccc(OCCF)c1 here?
A: 33 to 35 °C

Q: Which melting point does the source give for O=C(O)CNC(=O)CC(F)(F)F here?
A: 122 to 124 °C

Q: For Nc1sc2c(c1C(=O)c1ccccc1)CCCC2, which melting point is on record?
A: 123 to 127 °C

Q: Which melting point does the source give for Cc1c(F)cc(C(=O)O)cc1S(=O)(=O)Cl here?
A: 179 to 181 °C

Q: With O=C1C2C3CC4C2C(=O)C2C1C3C42 (centres undefined) as the compound, how does the melting point read?
A: 240 to 242 °C

Q: For Nc1ccc(O)c(S(N)(=O)=O)c1, which melting point is on record?
A: 169 to 171 °C

Q: For O=C(O)CCc1ccc(F)cc1F, which melting point is on record?
A: 108 to 110 °C

Q: With CCOc1ccc(C(CN)c2c[nH]c3ccccc23)cc1OC (centres undefined) as the compound, how does the melting point read?
A: 114 to 116 °C

Q: Which melting point does the source give for O=[N+]([O-])c1cc2c(cc1Br)OCCO2 here?
A: 167 to 169 °C
